Measurements: PMC10226132, “First-in-Class Selective Inhibitors of the Lysine Acetyltransferase KAT8” (Journal of Medicinal Chemistry, 2023)

Tests used:
[1] = system: U937 cells; experiment: MTT cell proliferation assay, U937; format: cell-based, human; details: for antiproliferative activity in U937: 10, 25, 50, 100 μM; for IC50: 72 h treatment, MTT
From the text: (§1) Human commercially available AML U937, breast cancer MCF7, lung adenocarcinoma NCI-H460, H1299 and A-549, glioblastoma U251, B lymphocyte AHH1 cell lines were maintained in compete 10% foetal bovine serum (FBS,) RPMI 1640 (Euroclone, Milan, IT) medium. Human commercially available colon cancer HCT116 and HT29 lines and cervix adenocarcinoma HeLa cells were maintained in compete 10% FBS Dulbecco’s Modified Eagle Medium (DMEM) high glucose medium (Euroclone). L-Glutamine, FBS, and penicillin streptomycin mixture added to medium were obtained from Euroclone. All cell lines were cultured at 37 °C in a humidified atmosphere of 5% CO2:95% air and were tested for mycoplasma contamination routinely by RT-PCR.
(§2) For analysis of cell proliferation, cells were plated in sextuplicate on 96-well plates in complete media. After 24 h, cells were exposed to different drugs for 72 h. The inhibitory effect of different drugs was assessed by MTT (Sigma, St. Louis, MO, USA) colorimetric assays as previously reported.[67] Aqueous DMSO (0.5% v/v) was used as a control (untreated). The results are reported as “viability of drug-treated cells/viability of untreated cells” × 100 and represent the average ±SD of three independent experiments. IC50 values were using fitted by nonlinear regression using GraphPad Prism 8.0.

[2] = system: U251 cells; experiment: MTT cell proliferation assay, U251; format: cell-based, human; details: 10, 25, 50, 100 μM, 72 h
From the text: as §1, §2

[3] = system: UCP2 mRNA in HCT116 cells; experiment: qRT-PCR of UCP2 mRNA in HCT116 cells; format: cell-based, human; details: HCT116, 100 μM, 48 h
Procedure: Total RNA was isolated from cells after 48 h of treatment with compounds 19 and 34 (100 μM) using TRIzol reagent (Life Technologies) following the manufacturer’s instructions. cDNA was obtained by reverse transcription using a SensiFast cDNA Synthesis kit (Meridian Bioscience). qRT-PCR was performed using a Luna Universal qPCR Master Mix (BioLabs) and detected by Quant Studio3. The fold change of gene expression data was calculated by using the ddCT method. All samples were run in sextupled, and the results were presented as mean ± SEM. Detailed sequence of the primers used in the experiments can be found in the list below. • UCP2—Forward: 5′-[…]-3′ • Reverse 5′-[…]-3′ • HOXA9 — Forward: 5′-[…]-3′ • Reverse: 5′-[…]-3′

[4] = system: MCF7 cells; experiment: MTT cell proliferation assay, MCF7; format: cell-based, human; details: 10, 25, 50, 100 μM, 72 h
From the text: as §1, §2

[5] = system: HeLa cells; experiment: Annexin V/PI analysis, HeLa; format: cell-based, human; details: 50 and 100 μM, 72 h, compared to control
Procedure: (§3) For the analysis of the progression of cells through cell cycle phases and sub-G1 peak identification, 24 h after plating, cells were treated with the different compounds. After 72 h, both floating and adherent cells were collected and fixed with cold 70% ethanol. At least 24 h after fixation, cells were incubated with 0.025 mg/mL Propidium Iodide for 15 min at room temperature and analyzed. For Annexin V analysis, 24 h after plating, cells were treated with 50 and 100 μM of the compounds. In the case of chloroquine experiments, 10 μM chloroquine (Sigma-Aldrich, A9165) was added 30 min before compounds. 72 h after treatment, both floating and adherent cells were collected and stained with an Annexin V-FITC apoptosis detection kit (ENZO #ALX-850-020-KI). Samples were incubated 15 min in the dark at rt, and 10,000 events were then analyzed.

[6] = system: HCT116 cells; experiment: Cell cycle analysis by propidium iodide staining, HCT116; format: cell-based, human; details: 72 h
Procedure: as §3

[7] = biological target: T1, KAT8 (Homo sapiens, UniProt Q9H7Z6); experiment: CETSA target engagement in HT29 cells; format: cell-based; details: 100 μM, 4 h, 59 °C
T1 construct: endogenous in cells; host or cells: HT29
Procedure: Target engagement in cells was determined by CETSA.[65],[66] For CETSA experiments with cells treated in culture, ∼1 × 10^6 HT29 were treated with DMSO (0.5% v/v final) or 100 μM compound for 4 h at 37 °C and 5% CO2 in a humidified incubator. The cells were harvested, washed twice with PBS, and resuspended in PBS with protease inhibitors. The cell suspensions were then distributed into PCR tubes, heated at the indicated temperature in a SimpliAmp Thermal Cycler (Applied Biosystems) for 3 min, and then cooled for another 3 min at rt. The cell suspensions were then lysed by freeze-thawing three times with 3 min incubations in an ethanol/dry ice bath and water bath at 37 °C. The lysates were then centrifuged at 20,000×g for 30 min at 4 °C to remove cellular debris and protein aggregates, and lysates were prepared for WB analysis. Proteins were separated by SDS-PAGE on 13.5% gels and were transferred to nitrocellulose membranes (Biorad Laboratories). Membranes were blocked for 1 h and incubated overnight with the appropriate primary antibody at 4 °C. After incubation, membranes were washed and incubated with the appropriate secondary antibody (Biorad Laboratories) for 1 h at room temperature. […] The band signals were quantified using ImageJ and values normalized to the 37 °C DMSO control.

[8] = system: H1299 cells; experiment: MTT cell proliferation assay, H1299; format: cell-based, human; details: for antiproliferative activity in H1299: 10, 25, 50, 100 μM, 72 h; for IC50: Homo sapiens, NCI-H1299, 72 h treatment, MTT
From the text: as §1, §2

[9] = system: HT29 cells; experiment: Cell cycle analysis by propidium iodide staining, HT29; format: cell-based, human; details: 72 h
Procedure: as §3

[10] = system: AHH-1 cells; experiment: Proliferation of noncancer B lymphocyte AHH-1 cells; format: cell-based, human; details: 72 h; for effect on proliferation of AHH-1 cells: 25, 50, 100, 200 μM; for IC50: Homo sapiens, AHH-1, NI = no inhibition at 200 µM
From the text: as §1, §2

[11] = system: HeLa cells; experiment: MTT cell proliferation assay, HeLa; format: cell-based, human; details: 10, 25, 50, 100 μM, 72 h
From the text: as §1, §2

T1 sequence (Q9H7Z6 whole entry): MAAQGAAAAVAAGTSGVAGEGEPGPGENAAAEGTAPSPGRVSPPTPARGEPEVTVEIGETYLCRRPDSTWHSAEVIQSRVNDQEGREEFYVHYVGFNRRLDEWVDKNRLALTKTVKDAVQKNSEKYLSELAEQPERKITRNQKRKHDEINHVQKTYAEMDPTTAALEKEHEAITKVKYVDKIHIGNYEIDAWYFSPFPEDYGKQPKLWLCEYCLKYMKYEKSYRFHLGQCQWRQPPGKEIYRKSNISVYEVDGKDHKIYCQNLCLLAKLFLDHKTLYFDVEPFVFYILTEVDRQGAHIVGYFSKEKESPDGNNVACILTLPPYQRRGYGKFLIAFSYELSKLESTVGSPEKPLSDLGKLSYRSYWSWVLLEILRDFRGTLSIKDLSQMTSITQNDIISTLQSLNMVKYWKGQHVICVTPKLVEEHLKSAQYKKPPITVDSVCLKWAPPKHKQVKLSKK

O=C(O)c1ccc(N2N=C(c3ccccc3)/C(=C/c3ccc[nH]3)C2=O)cc1 [Compound 34, (Z)-4-(4-((1H-Pyrrol-2-yl)methylene)-5-oxo-3-phenyl-4,5-dihydro-1H-pyrazol-1-yl)benzoic Acid]
antiproliferative activity in U937 ([1]; 72 h): dose-dependent antiproliferative effects | IC50 ([1]; Homo sapiens, U-937): 51.7 ± 9.5 µM | antiproliferative activity in U251 [2]: neither inhibitor had any effect | UCP2 mRNA levels [3]: reduce the mRNA levels of UCP2 | antiproliferative activity in MCF7 [4]: neither inhibitor had any effect | apoptotic cell population (Annexin V), HeLa [5]: only a slight increase in apoptotic cell population | change in the different stages of cell cycle, HCT116 [6]: no significative change | target engagement (stabilization of KAT8 against thermal-induced aggregation) [7]: stabilize KAT8 against thermal-induced aggregation | antiproliferative activity in H1299 [8]: dose-dependent antiproliferative effects | IC50 [8]: 41.6 ± 6.8 µM | change in the different stages of cell cycle, HT29 [9]: no significative change | effect on proliferation of AHH-1 cells [10]: did not significantly affect the proliferation | IC50 [10]: > 200 µM | antiproliferative activity in HeLa [11]: a certain degree of antiproliferative activity

CC1=NN(c2ccc(C(=O)O)cc2)C(=O)/C1=C\c1ccc[nH]1 [Compound 19, (Z)-4-(4-((1H-Pyrrol-2-yl)methylene)-3-methyl-5-oxo-4,5-dihydro-1H-pyrazol-1-yl)benzoic Acid]
antiproliferative activity in U937 ([1]; 72 h): dose-dependent antiproliferative effects | inhibition at 50 µM ([1]; Homo sapiens, U-937, 50 μM, 72 h): ~70% | inhibition at 100 µM ([1]; Homo sapiens, U-937, 100 μM, 72 h): > 80% | IC50 ([1]; Homo sapiens, U-937): 30.1 ± 1.7 µM | antiproliferative activity in U251 [2]: neither inhibitor had any effect | UCP2 mRNA levels [3]: reduce the mRNA levels of UCP2 | antiproliferative activity in MCF7 [4]: neither inhibitor had any effect | apoptotic cell population (Annexin V), HeLa [5]: only a slight increase in apoptotic cell population | change in the different stages of cell cycle, HCT116 [6]: no significative change | target engagement (stabilization of KAT8 against thermal-induced aggregation) [7]: stabilize KAT8 against thermal-induced aggregation | antiproliferative activity in H1299 [8]: dose-dependent antiproliferative effects | IC50 [8]: 52.1 ± 10.6 µM | change in the different stages of cell cycle, HT29 [9]: no significative change | effect on proliferation of AHH-1 cells [10]: did not significantly affect the proliferation | IC50 [10]: > 200 µM | antiproliferative activity in HeLa [11]: a certain degree of antiproliferative activity
